Residues, ends and D or L forms follow the SMILES beside them. *: point of attachment. Fmoc = O=C(OCC1c2ccccc2-c2ccccc21)*; Boc = CC(C)(C)OC(=O)*
Assays:
[1] = Incorporation of low molecular weight drugs into Fmoc-Leu-Asp gels; type: physicochemical; conditions: Fmoc-Leu-Asp gel 10 mg/ml=21 mM
Procedure: (§1) The low molecular weight drugs 3,5-dimethyl-1-adamantanamine hydrochloride (Ada2Me) and 5-methyl-1-adamantanamine 3-carboxylic acid (AdaMeC) can also be incorporated into the Fmoc-Leu-Asp gels (10 mg/ml=21 mM) at concentrations of […] and 33 mM, respectively. At higher total concentrations, (>5 mM Ada2Me or >33 mM AdaMeC) these agents inhibit gelation. […] Fmoc-Leu-Asp alone produced antibodies with titers no greater than 1:4.

[2] = tested on: rabbits; experiment: Immunization of rabbits, antibody titers (double diffusion in agarose gel, reverse radial diffusion, passive hemagglutination); type: in vivo, rabbit; conditions: for production of specific antibodies, injected alone: rabbits, Ada2Me 5 mM, AdaMeC 33 mM
Procedure: as §1
Female random-bred rabbits were immunized three times, at weekly intervals and bled on the 24th day. A full dose was used for the first two immunizations, and a half of the full dose for the third immunization. Full doses of the BSA conjugates were 100 μg total protein. Before injections, AdaMeC-BSA and AdaMeC-Bal-BSA solutions were diluted with equal volumes of complete Freund's adjuvant, but AdaMeC+dipeptide gel was diluted with an equal volume of 0.01M phosphate buffer; pH 7.4. The volume of immunogen solutions injected each time was 1 ml. Immune sera were analyzed by two immunoprecipitation assays, the double diffusion in agarose gel and the reverse radial immunodiffusion, as described by Oudin, J. Meth. Enzymol., 70, 166-98 (1980). As shown in FIG. 8A double diffusion in agarose was used to determine the titer of antibodies recognizing AdaMeC-containing conjugates in sera of rabbits immunized with AdaMeC-coupled with or without a beta-alanine (Bal) spacer to BSA in complete Freunds adjuvant or with AdaMeC mixed with Fmoc-Leu-Asp without adjuvant. The antisera were tested against each of the three immunogens and compared to sera of rabbits injected with either AdaMeC or Fmoc-Leu-Asp-alone. And as shown in FIG. 8B the passive hemagglutination test, as described in Adler, F. L. & Adler, L. T., Meth. Enzymol., 70, 455-66 (1980), was used to analyze antisera of rabbits immunized with each of the three AdaMeC conjugates after challenge with the three AdaMeC conjugates, AdaMeC alone or Ada2Me. In the first two assays, the solid phase was 1% agarose containing 0.8% sodium chloride. The sample volumes were 25 μl. The probes were incubated for 72 h at 37° C. […]

[3] = methanol and cyclohexane; cited from earlier work
[4] = Aqueous gel formation of Fmoc-protected peptides; type: physicochemical; conditions: for Gel formed / Gel formed (minimum conc., %): aqueous gels
Procedure: Aqueous gels of the synthesized compounds can be made by several methods which are outlined here and more fully described in the examples.
1. Finely ground dipeptide or tripeptide compound is suspended in boiling water, the mixture is briefly and vigorously mixed or shaken and left to cool. Between 50-60° C. gelation occurrs. This procedure can be repeated to obtain a more homogeneous mixture and a stronger gel.
2. The dipeptide or tripeptide compound is dissolved in a minimal volume of organic solvent which is miscible in water, and at room temperature a small volume of the solution is added to a large volume of water with rapid mixing, after which the gel forms.
3. Methods 1 and 2 can be combined.
(§2) Boil 10 ml water and suspend in it 0.8% finely ground compound 5 of Table 2. Strongly shake or stir the suspension then let stand 10-15 minutes. On cooling the solution becomes turbid at 50-60° C. and at room temperature a gel forms. The gel can be reheated, agitated and recooled. When repeated several times, a stronger gel forms.

[5] = Shear modulus by free oscillations using a torsion pendulum; type: physicochemical
Procedure: From this curve is calculated the shear modulus G^1.
The shear modulus was measured by free oscillations using a torsion pendulum. The theory and description of the method are described in Plazek D., Vrancke., Berge J., Trans. Soc. Rheol. 2, 38-47 (1958); Ferry J. Viscoelastic Properties of Polymers, Wiley New York (1980), and Janmey P., et al., J. Rheol. 27, 135-153 (1993). Gels are formed by method 1 using Tris buffer pH7.4. The peptide concentration in FIG. 1 is 2.5 mg/ml (0.25%). […] This denotes the moderately high elastic strength of this gel.

[6] = Preparation of gels in ethylether; type: physicochemical; conditions: diethylether gel, -5° C.
Procedure: Suspend 150-200 mg finely ground compound 5 of table 2 in 10 mL boiling diethylether. Shake suspension, filter and let sit 30-60 minutes at -5° C. On cooling a gel forms. The peptide concentration can be measured by weighing the gel, and evaporating the solvent in vacuum to a constant weight. In this way a solute concentration of 1-1.2% was found.

[7] = Solubility in water (Example 2); type: physicochemical
Procedure: as §2
Compound 5 is soluble below 0.8%. At concentrations below 0.4% little or no gel forms. When such a solution is evaporated to 50% volume and then heated and cooled, a gel forms.

[8] = Low strain oscillatory rheology (Rheometrics RFSII); type: physicochemical
Procedure: (triangles.) and 20° C. (circles). Other experimental conditions are as described for FIG. 6B.
Other experimental conditions and symbols are as described for FIG. 6C.
Of particular interest in this invention are the gels formed with Fmoc-Leu-Asp. At concentrations between 1 mg/ml and 1.5 mg/ml solutions of Fmoc-Leu-Asp undergo an abrupt increase in light scattering at both 20° C. and 60° C., as shown in FIG. 6A wherein 1 ml solutions in 1 cm diameter cylindrical cells were measured with a Brookhaven Instruments BI30ATN apparatus using a 633 nm 10 mW laser. When a solution of 2 mg/ml dipeptide is cooled from 100° C. to 60° C., viscoelastic parameters characteristic of a gel are obtained by low strain oscillatory measurements. The storage shear storage modulus, G', a measure of the elastic strength of the material, reaches a stable level of 80 Pa within several minutes (FIG. 6B). These measurements were made using a Rheometrics RFSII instrument1. The maximal shear strain was 1% for oscillatory deformation at a frequency of 1 rad/s. […] NY Acad. Sci. 408, 1-10, (1983) or F-actin, as shown in Janmey P. A. et al., Biochemistry 27, 8218-8227 (1988). […] G', shear storage modulus, depends weakly on frequency from 0.1 to 100 rad/s, and is much larger than the shear loss modulus G" (FIG. 6C). […]

[9] = Gel drying (evaporation of water); type: physicochemical
Procedure: Gels containing either 0.5-0.6% or 0.8% compound 5, gelatin, or starch are disolved in water at 90° C. and briefly cooled. The solutions (0.8 ml) are poured into shallow plastic dishes (17 mm inner diameter). On reaching room temperature, the dishes are weighed and left with desicants but without vacuum to dry. […] After 15 hours, the compound 5 gel has lost 57% of its water, but the gelatine and starch solutions have lost 70% and 87% of their water, respectively.

[10] = chloroform; cited from earlier work

CC12CC3CC(C)(C1)CC(N)(C3)C2.Cl [Ada2Me, 3,5-dimethyl-1-adamantanamine hydrochloride]
concentration incorporated into Fmoc-Leu-Asp gels [1]: 1000 µM | total concentration that inhibits gelation [1]: > 5 mM | production of specific antibodies, injected alone [2]: neither Ada2Me (5 mM) nor AdaMeC (33 mM) produced specific antibodies

CC12CC3CC(N)(C1)CC(C(=O)O)(C3)C2.Cl (stereo not shown) [AdaMeC, 5-methyl-1-adamantanamine 3-carboxylic acid hydrochloride]
concentration incorporated into Fmoc-Leu-Asp gels [1]: 33000 µM | total concentration that inhibits gelation [1]: > 33 mM | production of specific antibodies, injected alone [2]: neither Ada2Me (5 mM) nor AdaMeC (33 mM) produced specific antibodies

CCCCCCCCCCCCCCCC(=O)c1ccc(OC(=O)[C@H](C)NC(=O)OCc2ccccc2)c([N+](=O)[O-])c1 [N-benzyl-oxycarbonyl L-alanine 4-hexadecanoyl-2nitrophenyl ester]
concentration at which thermally reversible gels form [3]: below 1%

NC12CC3CC(CC(C3)C1)C2 [adamantamine]
antibody production in rabbits ([2]; trapped in Fmoc-Leu-Asp gels without additional adjuvant, versus covalently linked to BSA and injected with adjuvant): at least as efficiently

CC[C@H](C)[C@H](NC(=O)OCC1c2ccccc2-c2ccccc21)C(=O)N[C@@H](CC(=O)O)C(=O)O [compound 2, Fmoc--ile--Asp] (Fmoc-Ile-Asp-OH)
Gel formed [4]: Yes | Gel formed (minimum conc., %) [4]: 0.4%

CC(C)C[C@H](NC(=O)OCC1c2ccccc2-c2ccccc21)C(=O)N[C@@H](CC(=O)O)C(=O)O [compound 5, Fmoc--Leu--Asp] (Fmoc-Leu-Asp-OH)
gel formation with boric acid ([4]; 0.8% in 3.5% boric acid in boiling water, on cooling): a gel forms | temperature at which the solution becomes turbid on cooling ([4]; 0.8% in boiled water): 50-60 °C | Gel formed [4]: Yes | Gel formed (minimum conc., %) [4]: 0.5% | gel formation in glycerol solution ([4]; solutions of 70% glycerol): forms gels | concentration at which little or no gel forms ([4]; water): below 0.4% | shear modulus ([5]; 2.5 mg/ml (0.25%), Tris buffer pH7.4, gel formed by method 1): 3.1 Pa | saturation concentration ([5]; Tris buffer pH7.4): ~5 mg/mL | solute concentration in the gel [6]: 1-1.2% | concentration at which soluble in water [7]: below 0.8% | storage shear modulus G' ([8]; 2 mg/ml, cooled from 100° C. to 60° C., 1% maximal shear strain, 1 rad/s, stable level within several minutes): 80 Pa | fall of both shear moduli (G', G") on strain, factor ([8]; samples strained to 10%): 100 | gel formation on cooling ([9]; 0.5-0.6% or 0.8% in water dissolved at 90° C.): forms a gel on cooling | water lost ([9]; after 15 hours, with desicants, without vacuum, room temperature): 57%

CC[C@H](C)[C@H](NC(=O)[C@@H](NC(=O)[C@@H](NC(=O)OC(C)(C)C)C(C)C)C(C)C)C(=O)OC [t-butoxycarbonyl-valyl-valylisoleucine methylester] (Boc-Val-Val-Ile-OMe)
critical micelle concentration [10]: 2.5 mM
